Assay results published in ChEMBL document CHEMBL1811889, “Quinoline-4-methyl esters as human nonpancreatic secretory phospholipase A₂ inhibitors” (Bioorg Med Chem, 2011).

Target: T1, Phospholipase A2, membrane associated (Homo sapiens, UniProt P14555)
T1 sequence (P14555 whole entry): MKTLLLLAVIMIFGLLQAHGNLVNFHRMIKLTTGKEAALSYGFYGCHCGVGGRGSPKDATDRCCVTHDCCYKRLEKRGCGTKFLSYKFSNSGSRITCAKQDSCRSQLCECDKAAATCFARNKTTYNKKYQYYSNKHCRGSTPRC
Test: Inhibition of human non-pancreatic sPLA2 using 1,2-dimyristoyl-sn-glycero-3-phosphocholine substrate after 5 mins by continuous fluorescence assay; call rule not given here

SMILES | IC50 (read-out: IC50) [µM] | IC50
COC(=O)c1cc(CCc2ccccc2)nc2ccc(Cl)cc12 | 1.8 | 
CCCCOc1ccc(-c2cc(C(=O)OC)c3ccccc3n2)cc1 | 44 | 
COC(=O)c1cc(-c2ccc(OC)cc2)nc2ccc(OC)cc12 | 15 | 
COC(=O)c1cc(-c2ccccc2)nc2ccc(OC)cc12 | 2 | 
COC(=O)c1cc(CCc2ccccc2)nc2ccc(OC)cc12 | 1.5 | 
CCCCOc1ccc(-c2cc(C(=O)OC)c3cc(OC)ccc3n2)cc1 | 57 | 
COC(=O)c1c2c(nc3ccc(F)cc13)CCCC2 |  | Not Active
COC(=O)c1c(Cc2ccccc2)c(C)nc2ccc(F)cc12 | 16 | 
CCCCCCOc1ccc(-c2cc(C(=O)OC)c3cc(OC)ccc3n2)cc1 |  | Not Active
COC(=O)c1c(Cc2ccccc2)c(C)nc2ccc(Cl)cc12 | 2.8 | 
COC(=O)c1cc(CCc2ccccc2)nc2ccc(F)cc12 | 12 | 
CCCCCOc1ccc(-c2cc(C(=O)OC)c3cc(OC)ccc3n2)cc1 |  | Not Active
COC(=O)c1cc(-c2ccc(OC)cc2)nc2ccc(F)cc12 | 6 | 
COc1ccc2c(c1)c(CC(N)=O)c(C)n2Cc1ccccc1 | 1 | 
COC(=O)c1c2c(nc3ccc(Cl)cc13)CCCC2 |  | Not Active
COC(=O)c1c(Cc2ccccc2)c(C)nc2ccc(OC)cc12 | 34 | 
COC(=O)c1cc(Cc2ccccc2OC)nc2ccc(F)cc12 | 2.3 | 
COC(=O)c1c2c(nc3ccccc13)CCCC2 |  | Not Active
CCCOc1ccc(-c2cc(C(=O)OC)c3cc(OC)ccc3n2)cc1 | 27 | 
COC(=O)c1c(-c2ccccc2)c(C)nc2ccc(Cl)cc12 | 2.9 | 
COC(=O)c1cc(-c2ccc(OC)cc2)nc2ccc(Cl)cc12 | 8.1 | 
